# According to ChEMBL document CHEMBL2346646, “Improving the inhibitory activity of arylidenaminoguanidine compounds at the N-methyl-D-aspartate receptor complex from a recursive computational-experimental structure-activity relationship study” (Bioorg Med Chem, 2013):
# Molecular target: Glutamate [NMDA] receptor
# Parameters: species or system Homo sapiens
row,pIC50,SMILES
1,4.15,COC(=O)c1ccc(/C=N/NC(=N)N)cc1.Cl
2,3.74,Cl.N=C(N)N/N=C/c1ccsc1
3,5.22,CC(C)c1ccc(/C=N/NC(=N)N)cc1.Cl
4,4.94,Cc1ccc(/C=N/NC(=N)N)c2ccccc12.Cl
5,4.6,Cl.N=C(N)N/N=C/c1ccccc1C(F)(F)F
6,4.57,Cl.N=C(N)N/N=C/c1cccc2ccccc12
7,4.04,Cl.N=C(N)N/N=C/c1ccc(F)cc1
8,4.14,Cl.N=C(N)N/N=C/c1ccccc1
9,4.09,Cc1ccc(/C=N/NC(=N)N)cc1.Cl
10,4.99,Cl.N=C(N)N/N=C/c1ccc(Cl)cc1Cl
11,4.23,Cl.N=C(N)N/N=C/C=C/c1ccccc1
12,3.96,Cl.N=C(N)N/N=C/c1ccc(-c2ccc([N+](=O)[O-])cc2)o1
13,4.2,COc1ccc(/C=N/NC(=N)N)cc1O.Cl
14,3.81,Cl.N=C(N)N/N=C/c1cccc([N+](=O)[O-])c1
15,4.26,Cl.N=C(N)N/N=C/c1ccc(F)cc1F
16,4.54,COc1ccc(/C=N/NC(=N)N)c(OC)c1.Cl
17,5.1,CN(C)c1ccc(/C=N/NC(=N)N)cc1.Cl
18,5.07,Cl.N=C(N)N/N=C/c1ccccc1-c1ccccc1
19,3.96,Cl.N=C(N)N/N=C/c1ccc(N)cc1
20,4.37,CCCCc1ccc(/C=N/NC(=N)N)cc1.Cl
21,5.06,Cl.N=C(N)N/N=C/c1ccc2ccccc2c1

row,pIC50,SMILES
1,4.64,CC(C)(C)c1ccc(/C=N/NC(=N)N)cc1.Cl
2,4.31,Cl.Cn1c(/C=N/NC(=N)N)cc2ccccc21
3,4.02,Cl.N=C(N)N/N=C/c1ccc[nH]1
4,4.14,COC(=O)c1cccc(/C=N/NC(=N)N)c1.Cl
5,4.58,Cc1ccc2ccccc2c1/C=N/NC(=N)N.Cl
6,4.13,Cl.N=C(N)N/N=C/c1ccccc1F
7,3.64,Cl.N#Cc1ccc(/C=N/NC(=N)N)cc1
8,4.11,Cl.N=C(N)N/N=C/c1ccc([N+](=O)[O-])cc1
9,3.27,Cl.N=C(N)N/N=C/c1ccncc1
10,5.11,COc1ccc(/C=N/NC(=N)N)cc1[N+](=O)[O-].Cl
11,4.48,Cc1ccc2cc(/C=N/NC(=N)N)[nH]c2c1.Cl
12,4.36,Cl.N#Cc1cccc(/C=N/NC(=N)N)c1
13,4.42,COc1ccc(/C=N/NC(=N)N)cc1.Cl
14,3.65,Cl.N=C(N)N/N=C/c1cccc(N)c1
15,4.74,Cl.N=C(N)N/N=C/c1cccc(Cl)c1
16,5.44,Cl.N=C(N)N/N=C/c1ccc(Cl)cc1
17,4.3,Cl.N=C(N)N/N=C/c1ccc2[nH]ccc2c1
18,4.24,Cl.N=C(N)N/N=C/c1cc2ccccc2[nH]1
19,3.67,Cl.N=C(N)N/N=C/c1ccc(O)cc1O
20,4.77,COc1ccccc1/C=N/NC(=N)N.Cl

row,SMILES,pIC50
1,Cl.N=C(N)N/N=C/c1ccccc1Cl,5.15
2,Cl.Cl.N=C(N)N/N=C/c1ccc(/C=N/NC(=N)N)cc1,4.49
3,Cl.N=C(N)N/N=C/c1ccc2c(c1)OCO2,4.41
4,Cl.N=C(N)N/N=C/c1cccnc1,3.17
